Data published in patent US11707454B2, “Topical roflumilast formulation having antifungal properties” (ARCUTIS BIOTHERAPEUTICS, INC., priority 2020, dated 2023).
In brackets after ≈: the same amount, converted by molar mass. Read-outs that look alike come from different tables or passages of the source.

Columns and labels:
Assay type in all cases: cell-based
C. albicans (ATCC 90028) = assay: in vitro micro-dilution susceptibility assay (method of Rojas); conditions: Candida albicans, read-out: minimum inhibition concentration (MIC)
Protocol: (§1) The in vitro susceptibility of Malassezia species to roflumilast was determined utilizing three Candida species as internal control isolates for all testing. These three isolates were C. albicans American Type Culture Collection (ATCC) 90028, C. krusei (ATCC 6258) and C. parapsilosis (ATCC 22019). In addition to testing roflumilast all susceptibility assays were conducted using ketoconazole and hydrocortisone as positive and negative control compounds, respectively. All assays were placed within a humidified incubator set to 32° C. for a total of seven days. Each assay was evaluated after 12 hours of incubation and, every 24 hours post incubation for a total of seven days. The assays were evaluated for visual growth of each pathogen in the no treatment control as well as determination of minimum inhibition concentration (MIC) values. The concentration that provides a 3-log10 CFU/mL reduction in fungal burden from baseline at day 0 was defined as the minimum fungicidal concentration (MHC) and was determined by quantifying fungal burdens found in the microplate at day seven.
(§2) The method of Rojas (Rojas F D, et al. Antifungal susceptibility of Malassezia furfur, Malassezia sympodialis, and Malassezia globose to azole drugs and amphotericin B evaluated using a broth microdilution method. 2014. Medical Mycology. 52:641-646) was used in which the liquid broth medium was RPMI 1640 with added 1.8% glucose, 1% peptone, 0.5% ox-bile, 0.5% malt extract, 1% glycerol, 0.5% Tween 40 and 0.05% Tween 80. Round bottom 96 well microplates were used. The inoculums were prepared in sterile saline and diluted to a final targeted concentration of 0.5×10^5 to 2.5×10^5 CFU/mL in supplemented RPMI. […] For the internal control isolate C. parapsilosis (ATCC 22019) the expected CLSI values for ketoconazole of 0.03-0.25 (at 24 hours) and 0.06-0.5 (at 48 hours) did agree with the 2-day value (Table A) of 0.5.

C. krusei (ATCC 6258) = assay: as above; conditions: Pichia kudriavzevii, read-out: minimum inhibition concentration (MIC)
Protocol: as §1, §2

[1] = system: C. parapsilosis (ATCC 22019); assay: as above; conditions: Lodderomyces parapsilosis, C. parapsilosis (22019), read-out: minimum inhibition concentration (MIC)
Protocol: as §1, §2

M. furfur (ATCC 12078) = assay: as above; conditions: for MIC: Malassezia furfur, read-out: minimum inhibition concentration (MIC)
Protocol: as §1, §2

M. furfur (ATCC 14521) = assay: as above
Protocol: as §1, §2

M. furfur (ATCC 44344) = assay: as above; conditions: for MIC: Malassezia furfur, read-out: minimum inhibition concentration (MIC)
Protocol: as §1, §2

[2] = system: M. globose (ATCC MYA-4889); assay: as above; conditions: for MIC: read-out: minimum inhibition concentration (MIC)
Protocol: as §1, §2

[3] = system: M. restricta (ATCC MYA-4611); assay: as above; conditions: for MIC: read-out: minimum inhibition concentration (MIC)
Protocol: as §1, §2

Candida species = assay: in vitro micro-dilution susceptibility assay, summary; conditions: method of Rojas
Protocol: as §1, with “seven. […]” for “seven.”

Malassezia species = assay: as above; conditions: compared to the hydrocortisone negative control
Protocol: as §1, with “seven. […]” for “seven.”

MIC (C. albicans (ATCC 90028); ATCC90028, 12 h, Time 0.5 days): > 1020 µg/mL
MIC (C. albicans (ATCC 90028); ATCC90028, 24 h, Time 1 days): > 1020 µg/mL
MIC (C. albicans (ATCC 90028); ATCC90028, 48 h, Time 2 days): > 1020 µg/mL
MIC (C. albicans (ATCC 90028); ATCC90028, 72 h, Time 3 days): > 1020 µg/mL
MIC (C. albicans (ATCC 90028); ATCC90028, 96 h, Time 4 days): > 1020 µg/mL
MIC (C. albicans (ATCC 90028); ATCC90028, 120 h, Time 5 days): > 1020 µg/mL
MIC (C. albicans (ATCC 90028); ATCC90028, 144 h, Time 6 days): > 1020 µg/mL
MIC (C. albicans (ATCC 90028); ATCC90028, 168 h, Time 7 days): > 1020 µg/mL
MIC (C. krusei (ATCC 6258); ATCC6258, 12 h, Time 0.5 days): 128 µg/mL (≈ 317 µM)
MIC (C. krusei (ATCC 6258); ATCC6258, 24 h, Time 1 days): 1020 µg/mL (≈ 2540 µM)
MIC (C. krusei (ATCC 6258); ATCC6258, 48 h, Time 2 days): > 1020 µg/mL
MIC (C. krusei (ATCC 6258); ATCC6258, 72 h, Time 3 days): > 1020 µg/mL
MIC (C. krusei (ATCC 6258); ATCC6258, 96 h, Time 4 days): > 1020 µg/mL
MIC (C. krusei (ATCC 6258); ATCC6258, 120 h, Time 5 days): > 1020 µg/mL
MIC (C. krusei (ATCC 6258); ATCC6258, 144 h, Time 6 days): > 1020 µg/mL
MIC (C. krusei (ATCC 6258); ATCC6258, 168 h, Time 7 days): > 1020 µg/mL
MIC ([1]; ATCC22019, 12 h, Time 0.5 days): 1020 µg/mL (≈ 2540 µM)
MIC ([1]; ATCC22019, 24 h, Time 1 days): 1020 µg/mL (≈ 2540 µM)
MIC ([1]; ATCC22019, 48 h, Time 2 days): > 1020 µg/mL
MIC ([1]; ATCC22019, 72 h, Time 3 days): > 1020 µg/mL
MIC ([1]; ATCC22019, 96 h, Time 4 days): > 1020 µg/mL
MIC ([1]; ATCC22019, 120 h, Time 5 days): > 1020 µg/mL
MIC ([1]; ATCC22019, 144 h, Time 6 days): > 1020 µg/mL
MIC ([1]; ATCC22019, 168 h, Time 7 days): > 1020 µg/mL
MIC (M. furfur (ATCC 12078); ATCC12078, 48 h, Time 2 days): 128 µg/mL (≈ 317 µM)
MIC (M. furfur (ATCC 12078); ATCC12078, 72 h, Time 3 days): 128 µg/mL (≈ 317 µM)
MIC (M. furfur (ATCC 12078); ATCC12078, 96 h, Time 4 days): 128 µg/mL (≈ 317 µM)
MIC (M. furfur (ATCC 12078); ATCC12078, 120 h, Time 5 days): 128 µg/mL (≈ 317 µM)
MIC (M. furfur (ATCC 12078); ATCC12078, 144 h, Time 6 days): 128 µg/mL (≈ 317 µM)
MIC (M. furfur (ATCC 12078); ATCC12078, 168 h, Time 7 days): 128 µg/mL (≈ 317 µM)
minimum inhibition concentration (MIC) (M. furfur (ATCC 12078); Time 0.5 days): NGO
minimum inhibition concentration (MIC) (M. furfur (ATCC 12078); Time 1 days): NGO
minimum inhibition concentration (MIC) (M. furfur (ATCC 14521); Time 0.5 days): NGO
minimum inhibition concentration (MIC) (M. furfur (ATCC 14521); Time 1 days): NGO
MIC (M. furfur (ATCC 44344); ATCC44344, 48 h, Time 2 days): 64 µg/mL (≈ 159 µM)
MIC (M. furfur (ATCC 44344); ATCC44344, 72 h, Time 3 days): 64 µg/mL (≈ 159 µM)
MIC (M. furfur (ATCC 44344); ATCC44344, 96 h, Time 4 days): 64 µg/mL (≈ 159 µM)
MIC (M. furfur (ATCC 44344); ATCC44344, 120 h, Time 5 days): 64 µg/mL (≈ 159 µM)
MIC (M. furfur (ATCC 44344); ATCC44344, 144 h, Time 6 days): 64 µg/mL (≈ 159 µM)
MIC (M. furfur (ATCC 44344); ATCC44344, 168 h, Time 7 days): 64 µg/mL (≈ 159 µM)
minimum inhibition concentration (MIC) (M. furfur (ATCC 44344); Time 0.5 days): NGO
minimum inhibition concentration (MIC) (M. furfur (ATCC 44344); Time 1 days): NGO
MIC ([2]; 48 h, Time 2 days): 32 µg/mL (≈ 79.4 µM)
MIC ([2]; 72 h, Time 3 days): 32 µg/mL (≈ 79.4 µM)
MIC ([2]; 96 h, Time 4 days): 128 µg/mL (≈ 317 µM)
MIC ([2]; 120 h, Time 5 days): 128 µg/mL (≈ 317 µM)
MIC ([2]; 144 h, Time 6 days): 128 µg/mL (≈ 317 µM)
MIC ([2]; 168 h, Time 7 days): 128 µg/mL (≈ 317 µM)
minimum inhibition concentration (MIC) ([2]; Time 0.5 days): NGO
minimum inhibition concentration (MIC) ([2]; Time 1 days): NGO
MIC ([3]; 48 h, Time 2 days): 32 µg/mL (≈ 79.4 µM)
MIC ([3]; 72 h, Time 3 days): 32 µg/mL (≈ 79.4 µM)
MIC ([3]; 96 h, Time 4 days): 32 µg/mL (≈ 79.4 µM)
MIC ([3]; 120 h, Time 5 days): 32 µg/mL (≈ 79.4 µM)
MIC ([3]; 144 h, Time 6 days): 32 µg/mL (≈ 79.4 µM)
MIC ([3]; 168 h, Time 7 days): 64 µg/mL (≈ 159 µM)
minimum inhibition concentration (MIC) ([3]; Time 0.5 days): NGO
minimum inhibition concentration (MIC) ([3]; Time 1 days): NGO
Structure (SMILES): O=C(Nc1c(Cl)cncc1Cl)c1ccc(OC(F)F)c(OCC2CC2)c1 [Roflumilast, N-(3,5-dichloropyrid-4-yl)-3-cyclopropylmethoxy-4-difluoromethoxybenzamid-e]
antifungal activity against the tested Candida species (Candida species): did not demonstrate antifungal activity
antifungal activity against Malassezia species (Malassezia species): provides antifungal activity against Malassezia species
